In article doi:10.1101/2024.08.19.608619, “Discovery of potent SARS-CoV-2 nsp3 macrodomain inhibitors uncovers lack of translation to cellular antiviral response” (bioRxiv, 2024):
Like-named read-outs stand apart in the source and are kept apart here.

Legend:
Assay in all cases: biochemical
Parameters in all cases: In vitro kinase panel profiling, per cent remaining kinase activity at 10 uM
Aurora-A(h) = target: T1, Aurora-A(h) (Homo sapiens, UniProt O14965); conditions: atp_concentration=15, read-out: % of control remaining
T1 construct: gene AURKA
T1 sequence (O14965 1-403): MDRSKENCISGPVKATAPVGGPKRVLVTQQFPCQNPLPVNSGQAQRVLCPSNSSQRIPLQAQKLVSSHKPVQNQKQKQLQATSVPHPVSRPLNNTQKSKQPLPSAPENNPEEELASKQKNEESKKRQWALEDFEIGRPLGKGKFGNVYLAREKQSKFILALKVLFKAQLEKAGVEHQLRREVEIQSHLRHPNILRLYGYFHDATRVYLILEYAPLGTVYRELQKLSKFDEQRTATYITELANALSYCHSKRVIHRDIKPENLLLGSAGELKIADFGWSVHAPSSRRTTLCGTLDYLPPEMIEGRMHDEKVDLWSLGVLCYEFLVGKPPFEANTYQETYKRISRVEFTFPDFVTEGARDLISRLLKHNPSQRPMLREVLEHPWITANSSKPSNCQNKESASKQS
Text: (§1) We derisk potential for off-target activity by profiling the compound in a CEREP panel, a standard secondary pharmacology assessment, as well as a kinase panel to derisk a potential hinge-binding motif in our leads, and a PARP panel to derisk activity against human […]. Reassuringly, the compounds are selective, with the only off-targets being moderate human CHRM2 and KOR receptors activity associated with ASAP-0011198.

CK1γ1(h) = target: T2, CK1γ1(h) (Homo sapiens, UniProt Q9HCP0); conditions: atp_concentration=15, read-out: % of control remaining
T2 construct: gene CSNK1G1
Text: as §1

CaMKI(h) = target: T3, CaMKI(h) (Homo sapiens, UniProt Q14012); conditions: atp_concentration=200, read-out: % of control remaining
T3 construct: gene CAMK1
T3 sequence (Q14012 whole entry): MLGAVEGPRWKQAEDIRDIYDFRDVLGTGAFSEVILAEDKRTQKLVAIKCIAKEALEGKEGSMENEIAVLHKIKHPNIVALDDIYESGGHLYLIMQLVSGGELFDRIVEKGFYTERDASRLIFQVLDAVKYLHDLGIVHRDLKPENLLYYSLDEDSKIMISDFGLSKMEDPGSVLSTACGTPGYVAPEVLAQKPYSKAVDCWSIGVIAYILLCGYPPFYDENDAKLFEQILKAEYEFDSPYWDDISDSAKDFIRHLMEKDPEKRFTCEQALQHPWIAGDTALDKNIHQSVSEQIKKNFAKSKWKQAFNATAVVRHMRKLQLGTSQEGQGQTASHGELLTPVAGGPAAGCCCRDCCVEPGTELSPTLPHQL
Text: as §1

Fyn(h) = Fyn(h) (Homo sapiens, UniProt P06241); conditions: atp_concentration=70, read-out: % of control remaining
Fyn(h), sequence (P06241 whole entry): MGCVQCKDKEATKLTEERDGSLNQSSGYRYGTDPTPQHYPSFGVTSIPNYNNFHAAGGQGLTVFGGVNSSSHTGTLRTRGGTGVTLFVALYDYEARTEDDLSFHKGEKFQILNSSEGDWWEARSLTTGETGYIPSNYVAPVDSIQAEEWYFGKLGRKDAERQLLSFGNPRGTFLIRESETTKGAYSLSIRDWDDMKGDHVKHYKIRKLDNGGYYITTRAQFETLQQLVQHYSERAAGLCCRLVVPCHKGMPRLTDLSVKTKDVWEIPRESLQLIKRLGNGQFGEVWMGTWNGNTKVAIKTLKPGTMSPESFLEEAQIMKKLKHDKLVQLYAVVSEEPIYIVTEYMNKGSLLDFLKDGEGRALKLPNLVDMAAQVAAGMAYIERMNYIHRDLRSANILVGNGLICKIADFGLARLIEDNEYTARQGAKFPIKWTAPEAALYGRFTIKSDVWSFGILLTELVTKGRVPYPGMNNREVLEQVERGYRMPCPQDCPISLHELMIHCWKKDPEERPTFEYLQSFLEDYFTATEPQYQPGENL
Text: as §1

IRAK4(h) = target: T4, IRAK4(h) (Homo sapiens, UniProt Q9NWZ3); conditions: atp_concentration=200, read-out: % of control remaining
T4 sequence (Q9NWZ3 1-460): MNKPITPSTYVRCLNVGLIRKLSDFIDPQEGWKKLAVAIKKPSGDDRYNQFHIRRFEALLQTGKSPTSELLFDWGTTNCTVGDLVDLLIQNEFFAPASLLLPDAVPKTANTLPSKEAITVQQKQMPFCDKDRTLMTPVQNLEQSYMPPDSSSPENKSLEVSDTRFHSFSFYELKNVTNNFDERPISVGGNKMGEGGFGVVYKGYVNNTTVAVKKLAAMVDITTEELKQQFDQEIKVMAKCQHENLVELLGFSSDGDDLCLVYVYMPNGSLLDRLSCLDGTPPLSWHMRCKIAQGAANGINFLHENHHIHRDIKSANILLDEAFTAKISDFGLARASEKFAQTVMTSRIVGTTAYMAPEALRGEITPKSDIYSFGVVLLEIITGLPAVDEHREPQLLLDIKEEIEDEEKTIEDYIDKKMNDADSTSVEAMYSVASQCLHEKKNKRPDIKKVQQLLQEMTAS
Text: as §1

LOK(h) = target: T5, LOK(h) (Homo sapiens, UniProt O94804); conditions: atp_concentration=120, read-out: % of control remaining
T5 construct: gene STK10
Text: as §1

Lyn(h) = Lyn(h) (Homo sapiens, UniProt P07948); conditions: atp_concentration=70, read-out: % of control remaining
Lyn(h), sequence (P07948 whole entry): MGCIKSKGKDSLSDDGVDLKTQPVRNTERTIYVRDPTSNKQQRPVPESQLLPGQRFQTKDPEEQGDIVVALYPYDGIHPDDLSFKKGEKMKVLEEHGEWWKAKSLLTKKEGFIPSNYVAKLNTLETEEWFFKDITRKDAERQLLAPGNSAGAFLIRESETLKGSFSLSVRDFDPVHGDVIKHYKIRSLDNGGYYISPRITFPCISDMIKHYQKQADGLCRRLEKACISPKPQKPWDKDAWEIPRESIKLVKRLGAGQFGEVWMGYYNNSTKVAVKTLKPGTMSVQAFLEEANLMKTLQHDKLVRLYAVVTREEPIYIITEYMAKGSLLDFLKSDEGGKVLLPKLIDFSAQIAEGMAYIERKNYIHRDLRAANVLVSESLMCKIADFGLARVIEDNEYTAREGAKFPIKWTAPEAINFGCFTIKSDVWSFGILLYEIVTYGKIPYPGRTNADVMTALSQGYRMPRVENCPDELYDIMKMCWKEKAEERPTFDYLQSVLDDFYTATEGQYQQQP
Text: as §1

MST1(h) = target: T6, MST1(h) (Homo sapiens, UniProt Q13043); conditions: atp_concentration=90, read-out: % of control remaining
T6 construct: gene STK4
T6 sequence (Q13043 1-487): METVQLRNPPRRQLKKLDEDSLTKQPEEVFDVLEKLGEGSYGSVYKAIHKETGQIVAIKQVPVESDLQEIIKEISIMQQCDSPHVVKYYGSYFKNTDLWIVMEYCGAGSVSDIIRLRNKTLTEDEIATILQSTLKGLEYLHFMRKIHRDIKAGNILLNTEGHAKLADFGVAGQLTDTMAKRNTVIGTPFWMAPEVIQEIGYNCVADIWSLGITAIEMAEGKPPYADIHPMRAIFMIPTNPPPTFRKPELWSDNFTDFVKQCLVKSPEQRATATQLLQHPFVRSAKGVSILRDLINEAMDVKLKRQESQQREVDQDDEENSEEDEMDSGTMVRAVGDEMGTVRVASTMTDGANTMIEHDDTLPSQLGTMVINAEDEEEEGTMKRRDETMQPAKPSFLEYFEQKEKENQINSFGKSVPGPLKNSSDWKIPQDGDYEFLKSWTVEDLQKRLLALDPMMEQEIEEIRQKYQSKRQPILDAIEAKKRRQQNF
Text: as §1

PDGFRβ(h) = target: T7, PDGFRβ(h) (Homo sapiens, UniProt P09619); conditions: atp_concentration=200, read-out: % of control remaining
T7 construct: gene PDGFRB
T7 sequence (P09619 whole entry): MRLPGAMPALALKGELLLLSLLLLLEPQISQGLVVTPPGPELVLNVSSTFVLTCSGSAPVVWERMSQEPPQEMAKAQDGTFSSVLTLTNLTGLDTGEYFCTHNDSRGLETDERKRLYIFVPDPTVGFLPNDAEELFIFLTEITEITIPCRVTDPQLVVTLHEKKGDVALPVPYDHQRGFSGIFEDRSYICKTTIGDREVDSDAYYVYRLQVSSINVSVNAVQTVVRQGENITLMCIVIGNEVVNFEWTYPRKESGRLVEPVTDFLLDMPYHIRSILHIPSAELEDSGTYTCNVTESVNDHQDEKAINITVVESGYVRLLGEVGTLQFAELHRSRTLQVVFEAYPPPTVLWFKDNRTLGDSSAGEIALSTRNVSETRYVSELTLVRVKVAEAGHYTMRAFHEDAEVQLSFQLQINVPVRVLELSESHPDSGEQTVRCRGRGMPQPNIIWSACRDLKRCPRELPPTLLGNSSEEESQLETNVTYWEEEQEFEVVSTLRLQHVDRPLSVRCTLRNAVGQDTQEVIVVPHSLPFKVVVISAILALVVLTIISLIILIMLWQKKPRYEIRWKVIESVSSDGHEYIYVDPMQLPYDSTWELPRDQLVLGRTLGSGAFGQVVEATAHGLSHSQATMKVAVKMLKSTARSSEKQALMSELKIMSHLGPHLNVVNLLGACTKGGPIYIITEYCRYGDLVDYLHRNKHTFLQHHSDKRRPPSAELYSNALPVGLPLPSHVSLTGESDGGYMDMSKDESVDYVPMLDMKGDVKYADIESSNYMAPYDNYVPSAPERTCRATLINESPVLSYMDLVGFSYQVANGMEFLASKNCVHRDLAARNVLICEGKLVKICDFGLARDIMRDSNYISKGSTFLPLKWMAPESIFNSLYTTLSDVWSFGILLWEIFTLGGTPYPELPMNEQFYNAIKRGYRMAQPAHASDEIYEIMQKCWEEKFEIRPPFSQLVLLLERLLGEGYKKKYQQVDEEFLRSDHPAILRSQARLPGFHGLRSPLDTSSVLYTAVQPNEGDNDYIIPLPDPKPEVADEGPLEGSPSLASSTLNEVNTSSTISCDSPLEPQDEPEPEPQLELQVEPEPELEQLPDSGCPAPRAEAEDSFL
Text: as §1

[1] = target: T8, PI3 Kinase (p110β/p85α)(h) (Homo sapiens, UniProt P42338); conditions: atp_concentration=200, read-out: % of control remaining
T8 construct: gene PIK3CB
T8 sequence (P42338 whole entry): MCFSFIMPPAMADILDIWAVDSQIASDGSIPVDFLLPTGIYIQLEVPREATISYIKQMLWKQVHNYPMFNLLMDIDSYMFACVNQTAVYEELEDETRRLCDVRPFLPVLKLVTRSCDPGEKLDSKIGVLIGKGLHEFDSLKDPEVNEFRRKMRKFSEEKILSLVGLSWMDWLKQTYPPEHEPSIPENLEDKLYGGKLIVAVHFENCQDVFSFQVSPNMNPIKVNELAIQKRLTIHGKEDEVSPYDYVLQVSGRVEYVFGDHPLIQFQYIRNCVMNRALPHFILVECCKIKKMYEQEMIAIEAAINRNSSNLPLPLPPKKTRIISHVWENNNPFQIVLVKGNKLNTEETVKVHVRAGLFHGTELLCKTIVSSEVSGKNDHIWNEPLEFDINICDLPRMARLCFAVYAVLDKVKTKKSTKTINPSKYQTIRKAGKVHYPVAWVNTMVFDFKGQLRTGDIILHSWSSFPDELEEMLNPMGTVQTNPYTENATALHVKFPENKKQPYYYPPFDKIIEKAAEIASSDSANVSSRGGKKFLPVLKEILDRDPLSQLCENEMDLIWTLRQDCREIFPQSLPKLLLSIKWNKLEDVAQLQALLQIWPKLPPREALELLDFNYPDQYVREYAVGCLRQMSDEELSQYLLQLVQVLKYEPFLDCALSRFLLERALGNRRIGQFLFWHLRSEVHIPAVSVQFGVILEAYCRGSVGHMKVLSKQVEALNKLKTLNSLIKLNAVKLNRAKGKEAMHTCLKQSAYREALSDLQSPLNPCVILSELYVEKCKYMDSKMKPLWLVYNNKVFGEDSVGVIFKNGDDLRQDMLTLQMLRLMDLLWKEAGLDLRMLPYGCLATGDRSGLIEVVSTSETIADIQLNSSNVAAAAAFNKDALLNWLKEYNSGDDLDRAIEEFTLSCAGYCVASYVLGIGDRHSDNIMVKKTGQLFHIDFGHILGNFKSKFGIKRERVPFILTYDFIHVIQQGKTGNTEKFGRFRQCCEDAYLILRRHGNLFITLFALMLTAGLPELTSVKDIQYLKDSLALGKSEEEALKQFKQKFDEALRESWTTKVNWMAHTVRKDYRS
T8 sequence (P27986 whole entry partner): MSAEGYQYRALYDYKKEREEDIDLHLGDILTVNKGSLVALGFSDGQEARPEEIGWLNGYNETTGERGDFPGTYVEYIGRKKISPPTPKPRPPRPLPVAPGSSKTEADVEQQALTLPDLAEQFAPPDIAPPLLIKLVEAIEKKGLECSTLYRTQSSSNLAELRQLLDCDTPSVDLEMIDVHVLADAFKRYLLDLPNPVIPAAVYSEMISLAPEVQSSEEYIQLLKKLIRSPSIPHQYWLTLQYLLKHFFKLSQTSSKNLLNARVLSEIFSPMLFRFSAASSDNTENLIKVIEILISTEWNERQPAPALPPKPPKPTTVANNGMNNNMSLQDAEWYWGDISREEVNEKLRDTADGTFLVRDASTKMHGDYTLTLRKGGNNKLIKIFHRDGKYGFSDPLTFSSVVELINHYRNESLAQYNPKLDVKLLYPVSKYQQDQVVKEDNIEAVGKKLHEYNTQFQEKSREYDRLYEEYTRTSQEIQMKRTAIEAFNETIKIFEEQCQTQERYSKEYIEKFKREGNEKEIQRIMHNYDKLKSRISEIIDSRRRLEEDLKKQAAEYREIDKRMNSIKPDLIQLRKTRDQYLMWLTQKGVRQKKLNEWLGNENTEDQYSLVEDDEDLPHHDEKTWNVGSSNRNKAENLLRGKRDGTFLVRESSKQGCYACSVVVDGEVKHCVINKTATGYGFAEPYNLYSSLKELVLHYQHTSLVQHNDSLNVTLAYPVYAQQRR
Text: as §1

SAPK2a(h) = target: T9, SAPK2a(h) (Homo sapiens, UniProt Q16539); conditions: atp_concentration=90, read-out: % of control remaining
T9 construct: gene MAPK14
T9 sequence (Q16539 whole entry): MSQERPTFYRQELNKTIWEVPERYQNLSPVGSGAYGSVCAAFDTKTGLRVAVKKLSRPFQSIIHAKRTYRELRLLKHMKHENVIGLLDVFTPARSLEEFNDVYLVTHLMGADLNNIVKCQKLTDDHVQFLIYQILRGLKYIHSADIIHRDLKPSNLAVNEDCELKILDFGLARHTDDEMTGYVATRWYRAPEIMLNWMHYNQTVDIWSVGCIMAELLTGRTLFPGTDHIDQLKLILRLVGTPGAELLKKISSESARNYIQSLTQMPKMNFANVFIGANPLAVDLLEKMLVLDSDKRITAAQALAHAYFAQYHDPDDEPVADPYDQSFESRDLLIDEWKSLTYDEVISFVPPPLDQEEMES
Text: as §1

mTOR(h) = mTOR(h) (Homo sapiens, UniProt P42345); conditions: atp_concentration=70, read-out: % of control remaining
Text: as §1

CC(C)C(Nc1ncnc2[nH]ccc12)c1ccc2c(c1)S(=O)(=O)CCC2 (stereo not drawn) [ASAP-0008327]
remaining activity at 10 µM (Aurora-A(h); batch_name=ASAP-0008327-001): 57%
remaining activity at 10 µM (CK1γ1(h); batch_name=ASAP-0008327-001): 102%
remaining activity at 10 µM (CaMKI(h); batch_name=ASAP-0008327-001): 94%
remaining activity at 10 µM (Fyn(h); batch_name=ASAP-0008327-001): 127%
remaining activity at 10 µM (IRAK4(h); batch_name=ASAP-0008327-001): 88%
remaining activity at 10 µM (LOK(h); batch_name=ASAP-0008327-001): 104%
remaining activity at 10 µM (Lyn(h); batch_name=ASAP-0008327-001): 112%
remaining activity at 10 µM (MST1(h); batch_name=ASAP-0008327-001): 88%
remaining activity at 10 µM (PDGFRβ(h); batch_name=ASAP-0008327-001): 99%
remaining activity at 10 µM ([1]; batch_name=ASAP-0008327-001): 101%
remaining activity at 10 µM (SAPK2a(h); batch_name=ASAP-0008327-001): 108%
remaining activity at 10 µM (mTOR(h); batch_name=ASAP-0008327-001): 102%

COc1ccc([C@@H](Cc2nnn[nH]2)NC(=O)c2ncnc3[nH]ccc23)cc1 [ASAP-0008340]
remaining activity at 10 µM (Aurora-A(h); batch_name=ASAP-0008340-001): 71%
remaining activity at 10 µM (CK1γ1(h); batch_name=ASAP-0008340-001): 95%
remaining activity at 10 µM (CaMKI(h); batch_name=ASAP-0008340-001): 100%
remaining activity at 10 µM (Fyn(h); batch_name=ASAP-0008340-001): 105%
remaining activity at 10 µM (IRAK4(h); batch_name=ASAP-0008340-001): 91%
remaining activity at 10 µM (LOK(h); batch_name=ASAP-0008340-001): 96%
remaining activity at 10 µM (Lyn(h); batch_name=ASAP-0008340-001): 111%
remaining activity at 10 µM (MST1(h); batch_name=ASAP-0008340-001): 98%
remaining activity at 10 µM (PDGFRβ(h); batch_name=ASAP-0008340-001): 102%
remaining activity at 10 µM ([1]; batch_name=ASAP-0008340-001): 102%
remaining activity at 10 µM (SAPK2a(h); batch_name=ASAP-0008340-001): 100%
remaining activity at 10 µM (mTOR(h); batch_name=ASAP-0008340-001): 95%

CC(C)[C@@H](Nc1ncnc2[nH]c(-c3cnn(C)c3C#N)cc12)c1ccc2c(n1)OCCO2 [ASAP-0008418]
remaining activity at 10 µM (Aurora-A(h); batch_name=ASAP-0008418-001): 44%
remaining activity at 10 µM (CK1γ1(h); batch_name=ASAP-0008418-001): 87%
remaining activity at 10 µM (CaMKI(h); batch_name=ASAP-0008418-001): 104%
remaining activity at 10 µM (Fyn(h); batch_name=ASAP-0008418-001): 56%
remaining activity at 10 µM (IRAK4(h); batch_name=ASAP-0008418-001): 100%
remaining activity at 10 µM (LOK(h); batch_name=ASAP-0008418-001): 47%
remaining activity at 10 µM (Lyn(h); batch_name=ASAP-0008418-001): 61%
remaining activity at 10 µM (MST1(h); batch_name=ASAP-0008418-001): 103%
remaining activity at 10 µM (PDGFRβ(h); batch_name=ASAP-0008418-001): 108%
remaining activity at 10 µM ([1]; batch_name=ASAP-0008418-001): 92%
remaining activity at 10 µM (SAPK2a(h); batch_name=ASAP-0008418-001): 103%
remaining activity at 10 µM (mTOR(h); batch_name=ASAP-0008418-001): 83%
